# Reference: patent US11040038B2, “Methods for treating diseases associated with abnormal ACVR1 expression and ACVR1 inhibitors for use in the same” (Sumitomo Dainippon Pharma Oncology, Inc., priority 2018, dated 2021)
# “And” between values parts separate entries of the source, which are not always exact repeats. Identical values can stand only once. Like-named read-outs stand apart in the source and are kept apart here.
# Experiment: Pharmacokinetics and relative bioavailability after a single oral dose (two liquid formulations, powder in capsule)
# Assay type: in vivo, male Beagle dogs
# Conditions: for Kel / MRTobs / AUC0-TLast / AUC0-∞ / CL/F / Cmax / t1/2 / AUC(0-inf) / Tmax / half-life / AUC(0-t) / Vd/F: plasma; for AUC(0-t): read-out: AUC0-TLast; for Vd/F: read-out: Vz/F
# Excerpt: The purpose of the study is to dose two suspension formulations of Compound 2 at two dose levels by gavage to Beagle dogs and to collect blood samples for the determination of plasma concentrations, derivation of pharmacokinetic parameters and to determine the relative bioavailability of the two suspension formulations. The pharmacokinetics of Compound 2 would be evaluated following oral administration in capsules and the relative bioavailability of this dosage form to the oral liquid formulations was determined.
# This study involves the dosing of the test item by the oral route over three periods separated by a 7 days washout period as outlined in Table 43, Table 44, and Table 45. The third period of the study outlined in Table 45 is considered to be optional and will only be performed at the Sponsor's request. Prior to the day of dosing, food will be removed from the dogs at 4:00 pm and reintroduced 2 hrs after dosing.
# For oral administration of the formulations, the test item was administered via a stomach tube followed by the administration of 10 mL of tap water. For oral administration of capsules, the capsule was placed on the back of the tongue to encourage swallowing followed by administration of 10 mL of tap water. The oral cavity was then be inspected to make sure the capsule was swallowed. The actual volume of dosing formulation administered will be calculated based on the animal's most recently scheduled body weight.
# The pharmacokinetic parameters for Compound 2 in solution as Formulation #1 (Table 43) and Formulation #2 (Table 44) along with data for the dosing of Compound 2 powder in capsule (Table 45) are presented in Table 46.
# [1] = Formulation #1 (Table 43), 2 mg/kg oral, male Beagle dogs, Mean
# [2] = Formulation #1 (Table 43), 2 mg/kg oral, male Beagle dogs, individual dog, 2 mg/kg
# [3] = Formulation #1 (Table 43), 5 mg/kg oral, male Beagle dogs, Mean
# [4] = Formulation #1 (Table 43), 5 mg/kg oral, male Beagle dogs, individual dog, 5 mg/kg
# [5] = Formulation #2 (Table 44), 2 mg/kg oral, male Beagle dogs, Mean
# [6] = Formulation #2 (Table 44), 2 mg/kg oral, male Beagle dogs, individual dog, 2 mg/kg
# [7] = Formulation #2 (Table 44), 5 mg/kg oral, male Beagle dogs, Mean
# [8] = Formulation #2 (Table 44), 5 mg/kg oral, male Beagle dogs, individual dog, 5 mg/kg
# [9] = Powder in Capsule (Table 45), 2 mg/kg oral, male Beagle dogs, Mean
# [10] = Powder in Capsule (Table 45), 2 mg/kg oral, male Beagle dogs, individual dog, 2 mg/kg
# [11] = Powder in Capsule (Table 45), 5 mg/kg oral, male Beagle dogs, Mean
# [12] = Powder in Capsule (Table 45), 5 mg/kg oral, male Beagle dogs, individual dog, 5 mg/kg
# [13] = male, Beagle, dog, po, 2 mg/kg, Formulation #1 (Table 43), 2 mg/kg oral, male Beagle dogs, Mean
# [14] = male, Beagle, dog, po, 2 mg/kg, Formulation #1 (Table 43), 2 mg/kg oral, male Beagle dogs, individual dog
# [15] = male, Beagle, dog, po, 2 mg/kg, Formulation #2 (Table 44), 2 mg/kg oral, male Beagle dogs, Mean
# [16] = male, Beagle, dog, po, 2 mg/kg, Formulation #2 (Table 44), 2 mg/kg oral, male Beagle dogs, individual dog
# [17] = male, Beagle, dog, po, 2 mg/kg, Powder in Capsule (Table 45), 2 mg/kg oral, male Beagle dogs, Mean
# [18] = male, Beagle, dog, po, 2 mg/kg, Powder in Capsule (Table 45), 2 mg/kg oral, male Beagle dogs, individual dog
# [19] = male, Beagle, dog, po, 5 mg/kg, Formulation #1 (Table 43), 5 mg/kg oral, male Beagle dogs, Mean
# [20] = male, Beagle, dog, po, 5 mg/kg, Formulation #1 (Table 43), 5 mg/kg oral, male Beagle dogs, individual dog
# [21] = male, Beagle, dog, po, 5 mg/kg, Formulation #2 (Table 44), 5 mg/kg oral, male Beagle dogs, Mean
# [22] = male, Beagle, dog, po, 5 mg/kg, Formulation #2 (Table 44), 5 mg/kg oral, male Beagle dogs, individual dog
# [23] = male, Beagle, dog, po, 5 mg/kg, Powder in Capsule (Table 45), 5 mg/kg oral, male Beagle dogs, Mean
# [24] = male, Beagle, dog, po, 5 mg/kg, Powder in Capsule (Table 45), 5 mg/kg oral, male Beagle dogs, individual dog
smiles,measurement,setting,value
"COc1cc(Nc2nccc(Nc3cccnc3-c3ccccn3)n2)ccc1N1CCN(C)CC1 [Compound 2, N^4-(2,2′-bipyridin-3-yl)-N^2-(3-methoxy-4-(4-methylpiperazin-1-yl)phenyl)pyrimidine-2,4-diamine]",Kel,[1],0.124 h⁻¹
same,MRTobs,[1],9.32 h
same,AUC0-TLast,[2],87 ng·h/mL and 77 ng·h/mL
same,AUC0-∞,[2],92 ng·h/mL and 82 ng·h/mL
same,CL/F,[2],367 mL/min/kg and 400 mL/min/kg
same,Cmax,[2],8.69 ng/mL and 7.27 ng/mL
same,Kel,[2],0.116 h⁻¹ and 0.133 h⁻¹ and 0.124 h⁻¹
same,MRTobs,[2],10.05 h and 8.64 h and 9.26 h
same,t1/2,[2],5.2 h
same,Kel,[3],0.138 h⁻¹
same,MRTobs,[3],8.71 h
same,AUC0-TLast,[4],190 ng·h/mL and 453 ng·h/mL and 198 ng·h/mL
same,AUC0-∞,[4],204 ng·h/mL and 475 ng·h/mL
same,CL/F,[4],417 mL/min/kg and 183 mL/min/kg
same,Cmax,[4],15.51 ng/mL and 46.76 ng/mL and 21.15 ng/mL
same,Kel,[4],0.115 h⁻¹ and 0.136 h⁻¹ and 0.162 h⁻¹
same,MRTobs,[4],9.72 h and 8.6 h and 7.82 h
same,t1/2,[4],5.1 h and 4.3 h
same,Kel,[5],0.150 h⁻¹
same,MRTobs,[5],8.49 h
same,AUC0-TLast,[6],115 ng·h/mL and 44 ng·h/mL
same,AUC0-∞,[6],148 ng·h/mL and 120 ng·h/mL and 47 ng·h/mL
same,CL/F,[6],217 mL/min/kg and 283 mL/min/kg and 717 mL/min/kg
same,Cmax,[6],19.72 ng/mL and 10.43 ng/mL and 4.59 ng/mL
same,Kel,[6],0.179 h⁻¹ and 0.145 h⁻¹ and 0.125 h⁻¹
same,MRTobs,[6],7.31 h and 9.2 h and 8.96 h
same,t1/2,[6],4.8 h and 5.5 h
same,Kel,[7],0.142 h⁻¹
same,MRTobs,[7],8.28 h
same,AUC0-TLast,[8],151 ng·h/mL and 342 ng·h/mL and 141 ng·h/mL
same,AUC0-∞,[8],159 ng·h/mL and 357 ng·h/mL and 146 ng·h/mL
same,CL/F,[8],517 mL/min/kg and 233 mL/min/kg and 567 mL/min/kg
same,Cmax,[8],17.70 ng/mL and 34.08 ng/mL and 14.91 ng/mL
same,Kel,[8],0.129 h⁻¹ and 0.142 h⁻¹ and 0.153 h⁻¹
same,MRTobs,[8],8.44 h and 8.7 h and 7.71 h
same,t1/2,[8],4.9 h and 4.5 h
same,Kel,[9],0.304 h⁻¹
same,MRTobs,[9],5.23 h
same,AUC0-TLast,[10],53 ng·h/mL and 49 ng·h/mL and 112 ng·h/mL
same,AUC0-∞,[10],58 ng·h/mL and 122 ng·h/mL
same,CL/F,[10],583 mL/min/kg and 267 mL/min/kg
same,Cmax,[10],9.55 ng/mL and 13.83 ng/mL and 21.31 ng/mL
same,Kel,[10],0.293 h⁻¹ and 0.314 h⁻¹
same,MRTobs,[10],5.15 h and 5.30 h
same,t1/2,[10],2.2 h
same,Kel,[11],0.233 h⁻¹
same,MRTobs,[11],6.44 h
same,AUC0-TLast,[12],139 ng·h/mL and 107 ng·h/mL
same,AUC0-∞,[12],142 ng·h/mL and 122 ng·h/mL
same,CL/F,[12],583 mL/min/kg and 683 mL/min/kg
same,Cmax,[12],43.79 ng/mL and 14.66 ng/mL and 18.21 ng/mL
same,Kel,[12],0.255 h⁻¹ and 0.183 h⁻¹ and 0.261 h⁻¹
same,MRTobs,[12],5.79 h and 7.62 h and 5.92 h
same,t1/2,[12],3.8 h
same,time of appearance in the plasma post dosing,"beagle dogs, oral, all formulations",≤ 0.5 h
same,Cmax,"male, Beagle, dog, po, 2 mg/kg, 2 mg/kg oral, range across Formulation #1, #2 and powder in capsules, read-out: mean Cmax",6.78 to 14.9 ng/mL
same,AUC(0-inf),[13],74 ng·h/mL
same,Tmax,[13],4.7 h
same,half-life,[13],5.6 h
same,AUC(0-inf),[14],49 ng·h/mL
same,Tmax,[14],5 h
same,half-life,[14],6 h
same,AUC(0-t),[13],70 ng·h/mL
same,CL/F,"male, Beagle, dog, po, 2 mg/kg, Formulation #1 (Table 43), 2 mg/kg oral, male Beagle dogs, Mean, read-out: CL/F (converted)",483 mL/min/kg
same,Cmax,"male, Beagle, dog, po, 2 mg/kg, Formulation #1 (Table 43), 2 mg/kg oral, male Beagle dogs, Mean, read-out: Cmax",6.78 ng/mL
same,Vd/F,[13],237 L/kg
same,AUC(0-t),[14],45 ng·h/mL
same,CL/F,"male, Beagle, dog, po, 2 mg/kg, Formulation #1 (Table 43), 2 mg/kg oral, male Beagle dogs, individual dog, read-out: CL/F (converted)",683 mL/min/kg
same,Cmax,"male, Beagle, dog, po, 2 mg/kg, Formulation #1 (Table 43), 2 mg/kg oral, male Beagle dogs, individual dog, read-out: Cmax",4.37 ng/mL
same,AUC(0-inf),[15],105 ng·h/mL
same,Tmax,[15],4.7 h
same,half-life,[15],4.7 h
same,Tmax,[16],4 h
same,half-life,[16],3.9 h
same,AUC(0-t),[15],102 ng·h/mL
same,CL/F,"male, Beagle, dog, po, 2 mg/kg, Formulation #2 (Table 44), 2 mg/kg oral, male Beagle dogs, Mean, read-out: CL/F (converted)",400 mL/min/kg
same,Cmax,"male, Beagle, dog, po, 2 mg/kg, Formulation #2 (Table 44), 2 mg/kg oral, male Beagle dogs, Mean, read-out: Cmax",11.6 ng/mL
same,Vd/F,[15],177 L/kg
same,AUC(0-inf),[17],90 ng·h/mL
same,Tmax,[17],3 h
same,half-life,[17],2.3 h
same,Tmax,[18],3 h
same,half-life,[18],2.4 h
same,AUC(0-t),[17],71 ng·h/mL
same,CL/F,"male, Beagle, dog, po, 2 mg/kg, Powder in Capsule (Table 45), 2 mg/kg oral, male Beagle dogs, Mean, read-out: CL/F (converted)",417 mL/min/kg
same,Cmax,"male, Beagle, dog, po, 2 mg/kg, Powder in Capsule (Table 45), 2 mg/kg oral, male Beagle dogs, Mean, read-out: Cmax",14.9 ng/mL
same,Vd/F,[17],85 L/kg
same,Cmax,"male, Beagle, dog, po, 5 mg/kg, 5 mg/kg oral, range across Formulation #1, #2 and powder in capsules, read-out: mean Cmax",22.2 to 27.8 ng/mL
same,AUC(0-inf),[19],294 ng·h/mL
same,Tmax,[19],3.7 h
same,half-life,[19],5.1 h
same,Tmax,[20],4 h
same,half-life,[20],6 h
same,AUC(0-t),[19],280 ng·h/mL
same,CL/F,"male, Beagle, dog, po, 5 mg/kg, Formulation #1 (Table 43), 5 mg/kg oral, male Beagle dogs, Mean, read-out: CL/F (converted)",333 mL/min/kg
same,Cmax,"male, Beagle, dog, po, 5 mg/kg, Formulation #1 (Table 43), 5 mg/kg oral, male Beagle dogs, Mean, read-out: Cmax",27.8 ng/mL
same,Vd/F,[19],147 L/kg
same,AUC(0-inf),[21],221 ng·h/mL
same,Tmax,[21],3.7 h
same,half-life,[21],4.9 h
same,Tmax,[22],3 h
same,half-life,[22],5.4 h
same,AUC(0-t),[21],211 ng·h/mL
same,CL/F,"male, Beagle, dog, po, 5 mg/kg, Formulation #2 (Table 44), 5 mg/kg oral, male Beagle dogs, Mean, read-out: CL/F (converted)",450 mL/min/kg
same,Cmax,"male, Beagle, dog, po, 5 mg/kg, Formulation #2 (Table 44), 5 mg/kg oral, male Beagle dogs, Mean, read-out: Cmax",22.2 ng/mL
same,Vd/F,[21],188 L/kg
same,AUC(0-inf),[23],160 ng·h/mL
same,Tmax,[23],4.3 h
same,half-life,[23],3.1 h
same,AUC(0-inf),[24],215 ng·h/mL
same,Tmax,[24],3 h
same,half-life,[24],2.7 h
same,AUC(0-t),[23],146 ng·h/mL
same,CL/F,"male, Beagle, dog, po, 5 mg/kg, Powder in Capsule (Table 45), 5 mg/kg oral, male Beagle dogs, Mean, read-out: CL/F (converted)",550 mL/min/kg
same,Cmax,"male, Beagle, dog, po, 5 mg/kg, Powder in Capsule (Table 45), 5 mg/kg oral, male Beagle dogs, Mean, read-out: Cmax",25.6 ng/mL
same,Vd/F,[23],147 L/kg
same,AUC(0-t),[24],191 ng·h/mL
same,CL/F,"male, Beagle, dog, po, 5 mg/kg, Powder in Capsule (Table 45), 5 mg/kg oral, male Beagle dogs, individual dog, read-out: CL/F (converted)",383 mL/min/kg
same,Tmax,"male, Beagle, dog, po, 5 mg/kg, beagle dogs, range across formulations at both doses (2 and 5 mg/kg)",3 to 4.7 h
